Assay results reported in ChEMBL document CHEMBL4385629, “Evaluation of quinoxaline compounds as ligands of a site adjacent to S2 (AS2) of cruzain” (Bioorg Med Chem Lett, 2019).
Active and inactive are the calls of the source. The calls are words filed in the database; no cut-off is given here.

How the values were obtained:
[1] = target: Cruzipain (Trypanosoma cruzi) (UniProt P25779); experiment: Activation of Trypanosoma cruzi cruzain assessed as increase in enzyme activity using Z-FR-AMC as substrate at 0.1 mM incubated for 15 mins in dark and measured at 5 mins interval for 60 mins by fluorescence based method relative to control
Sequence of Cruzipain (Trypanosoma cruzi) (P25779 123-467 limits assumed): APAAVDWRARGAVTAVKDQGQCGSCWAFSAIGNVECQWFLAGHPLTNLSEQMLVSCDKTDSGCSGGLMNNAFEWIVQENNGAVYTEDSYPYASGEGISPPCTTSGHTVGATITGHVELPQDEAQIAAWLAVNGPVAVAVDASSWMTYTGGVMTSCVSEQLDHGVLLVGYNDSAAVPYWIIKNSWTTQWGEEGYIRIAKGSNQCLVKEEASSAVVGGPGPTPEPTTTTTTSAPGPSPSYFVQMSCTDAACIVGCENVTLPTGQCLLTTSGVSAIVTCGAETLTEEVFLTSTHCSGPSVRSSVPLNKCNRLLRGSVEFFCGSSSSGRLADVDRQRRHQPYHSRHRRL

[2] = target: Cruzipain (Trypanosoma cruzi) (UniProt P25779); experiment: Inhibition of Trypanosoma cruzi cruzain assessed as reduction in 7-amino-4-methylcoumarin production using Z-FR-AMC as substrate and measured up to 60 mins by fluorescence based method

`O=C1CNc2ccccc2N1` was tested, and the fold change (FC) [1] was 15 and the inhibition [2] was “inactive”.

With `O=C(O)CCc1nc2ccccc2[nH]c1=O` the fold change (FC) [1] was 10 and the inhibition [2] was “inactive”.

For `Oc1nc2ccccc2nc1O`, the fold change (FC) [1] was 3 and the inhibition [2] was “inactive”.
